Experiments:
[1] = target: T1, recombinant human muscarinic receptor m2 (Homo sapiens, UniProt P08172); experiment: Radioligand binding studies, [3H]N-methyl scopolamine, scintillation proximity assay; settings: CHO cell membranes, pIC50 converted to pKi by Cheng-Prusoff
T1 construct: expressed in transfected cells; host or cells: Chinese hamster ovary (CHO) cells, membrane preparation
T1 sequence (P08172 1-466): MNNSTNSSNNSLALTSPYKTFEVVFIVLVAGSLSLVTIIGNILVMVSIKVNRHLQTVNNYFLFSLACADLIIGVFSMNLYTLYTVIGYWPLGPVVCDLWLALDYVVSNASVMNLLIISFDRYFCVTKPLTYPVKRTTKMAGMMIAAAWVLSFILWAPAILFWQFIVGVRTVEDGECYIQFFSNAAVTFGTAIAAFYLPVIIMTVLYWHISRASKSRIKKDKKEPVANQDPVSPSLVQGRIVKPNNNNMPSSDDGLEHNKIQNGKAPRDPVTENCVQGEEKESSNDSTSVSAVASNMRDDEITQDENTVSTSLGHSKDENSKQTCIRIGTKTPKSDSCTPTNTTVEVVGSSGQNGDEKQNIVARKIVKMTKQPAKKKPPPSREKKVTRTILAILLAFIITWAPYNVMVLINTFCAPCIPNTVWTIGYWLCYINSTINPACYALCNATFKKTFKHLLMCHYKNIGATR
Description: (§1) The compounds of this invention are muscarinic receptor antagonists. The muscarinic receptor affinity of test compounds can be determined by an in vitro receptor binding assay which utilizes a cell membrane preparation from the Chinese hamster ovary cells expressing the recombinant human muscarinic receptors (M1-M5), and is described in more detail in Example 18.
(§2) The inhibitory activity of compounds of this invention in vitro was determined using a modification of the method described in Hegde, S. S. et al. (1997) Br. J. Pharmacol., 120, 1409-1418.
(§3) Cell membranes from Chinese hamster ovary cells expressing the recombinant human muscarinic receptors (m1-m5) were employed. The assays were conducted with the radioligand [^3H]N-methyl scopolamine(0.4 nM, specific activity 84 Ci·mmol^−1) in a final volume of 0.25 mL Tris-Krebs buffer. Non-specific binding was defined with 1 μM atropine. Assays were performed using scintillation proximity assay technology. Competition-displacement curves were generated using 10 concentrations of test compounds and were analyzed by iterative curve fitting to a four parameter logistic equation. pIC50 values (−log of the IC50) were converted to pKi values using the Cheng-Prusoff equation.

[2] = target: T2, recombinant human muscarinic receptor m3 (Homo sapiens, UniProt P20309); experiment: as above; settings: CHO cell membranes, pIC50 converted to pKi by Cheng-Prusoff
T2 construct: expressed in transfected cells; host or cells: Chinese hamster ovary (CHO) cells, membrane preparation
Description: as §1, §2, §3

T2 sequence (P20309 whole entry): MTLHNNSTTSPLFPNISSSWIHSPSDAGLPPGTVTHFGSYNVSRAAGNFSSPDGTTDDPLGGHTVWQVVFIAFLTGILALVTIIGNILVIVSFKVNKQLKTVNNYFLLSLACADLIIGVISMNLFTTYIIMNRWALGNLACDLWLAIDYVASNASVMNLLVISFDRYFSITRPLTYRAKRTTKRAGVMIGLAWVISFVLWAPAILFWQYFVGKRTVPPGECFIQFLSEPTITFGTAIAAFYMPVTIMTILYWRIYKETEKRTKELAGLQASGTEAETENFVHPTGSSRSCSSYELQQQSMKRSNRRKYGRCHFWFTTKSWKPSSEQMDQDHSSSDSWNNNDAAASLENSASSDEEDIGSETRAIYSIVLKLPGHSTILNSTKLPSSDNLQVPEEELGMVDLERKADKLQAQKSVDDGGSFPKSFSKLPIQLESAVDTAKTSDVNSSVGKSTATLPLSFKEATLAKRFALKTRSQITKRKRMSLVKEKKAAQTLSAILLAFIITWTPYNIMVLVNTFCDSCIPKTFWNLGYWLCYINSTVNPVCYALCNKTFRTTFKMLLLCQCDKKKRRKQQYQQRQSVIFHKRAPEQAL

Ki [1] [nM]	Ki [2] [nM]	Compound
21.9	67.6	CCCN(CC1CCN(C(=O)N2CCN(C)CC2)CC1)C1CCc2ccc(OS(=O)(=O)c3c(C)noc3C)cc2C1 (stereo not drawn) [Cpd 115, 3,5-dimethyl-isoxazole-4-sulfonic acid 7-{[1-(4-methyl-piperazine-1-carbonyl)-piperidin-4-ylmethyl]-propyl-amino}-5,6,7,8-tetrahydro-naphthalen-2-yl ester]
5.25	186	CCCN(CC1CCN(C(=O)N2CCOCC2)CC1)C1CCc2ccc(N)cc2C1 (stereo not drawn) [Cpd 95, (4-{[(7-amino-1,2,3,4-tetrahydro-naphthalen-2-yl)-propyl-amino]-methyl}-piperidin-1-yl)-morpholin-4-yl-methanone]
16.2	46.8	CCCN(CC1CCN(S(C)(=O)=O)CC1)C1CCc2ccc(OCC)cc2C1 (stereo not drawn) [Cpd 104, (7-ethoxy-1,2,3,4-tetrahydro-naphthalen-2-yl)-(1-methanesulfonyl-piperidin-4-ylmethyl)-propyl-amine]
1.26	51.3	CCCN(CC1CCN(C(=O)C2CCNCC2)CC1)C1CCc2ccc(OS(=O)(=O)c3c(C)noc3C)cc2C1 (stereo not drawn) [Cpd 114, 3,5-dimethyl-isoxazole-4-sulfonic acid 7-{[1-(piperidine-4-carbonyl)-piperidin-4-ylmethyl]-propyl-amino}-5,6,7,8-tetrahydro-naphthalen-2-yl ester]
16.2	148	CCCN(CC1CCN(C(=O)c2ccno2)CC1)C1CCc2ccc(OS(=O)(=O)C(F)(F)F)cc2C1 (stereo not drawn) [Cpd 107, trifluoro-methanesulfonic acid 7-{[1-(isoxazole-5-carbonyl)-piperidin-4-ylmethyl]-propyl-amino}-5,6,7,8-tetrahydro-naphthalen-2-yl ester]
47.9	1200	CCN(CC1CCN(C(=O)N2CCOCC2)CC1)C1CCc2ccc(NC(=O)c3ccc(S(C)(=O)=O)cc3)cc2C1 (stereo not drawn) [Cpd 2, N-(7-{ethyl-[1-(morpholine-4-carbonyl)-piperidin-4-ylmethyl]-amino}-5,6,7,8-tetrahydro-naphthalen-2-yl)-4-methanesulfonyl-benzamide]
10.5	646	CCN(CC1CCN(C(=O)NC(C)C)CC1)C1CCc2ccc(NC(=O)c3ccc(F)cc3)cc2C1 (stereo not drawn) [Cpd 7, 4-({ethyl-[7-(4-fluoro-benzoylamino)-1,2,3,4-tetrahydro-naphthalen-2-yl]-amino}-methyl)-piperidine-1-carboxylic acid isopropylamide]
141	603	CCCN(CC1CCN(S(C)(=O)=O)CC1)C1CCc2ccc(-c3ccco3)cc2C1 (stereo not drawn) [Cpd 117, (7-furan-2-yl-1,2,3,4-tetrahydro-naphthalen-2-yl)-(1-methanesulfonyl-piperidin-4-ylmethyl)-propyl-amine]
25.1	102	CCCN(CC1CCN(C(=O)NC)CC1)C1CCc2ccc(OC)cc2C1 (stereo not drawn) [Cpd 25, 4-{[(7-methoxy-1,2,3,4-tetrahydro-naphthalen-2-yl)-propyl-amino]-methyl}-piperidine-1-carboxylic acid methylamide]
42.7	331	CCCN(CC1CCN(C(=O)c2ccco2)CC1)C1CCc2cc(OC)c(OC)cc2C1 (stereo not drawn) [Cpd 70, (4-{[(6,7-dimethoxy-1,2,3,4-tetrahydro-naphthalen-2-yl)-propyl-amino]-methyl}-piperidin-1-yl)-furan-2-yl-methanone]
2.51	5130	CCCN(CCC1CCN(C(=O)C2CCNCC2)CC1)[C@@H]1CCc2ccc(OC)cc2C1 [Cpd 116, (4-{2-[((R)-7-methoxy-1,2,3,4-tetrahydro-naphthalen-2-yl)-propyl-amino]-ethyl}-piperidin-1-yl)-piperidin-4-yl-methanone]
12.9	166	CCCN(CC1CCN(S(C)(=O)=O)CC1)C1CCc2ccc(N)cc2C1 (stereo not drawn) [Cpd 85, N-(1-methanesulfonyl-piperidin-4-ylmethyl)-N-propyl-1,2,3,4-tetrahydro-naphthalene-2,7-diamine]

From patent publication US6864266B2, “4-piperidinyl alkyl amine derivatives as muscarinic receptor antagonists” (Syntex (U.S.A.) LLC, priority 2001, dated 2005)
